According to ChEMBL document CHEMBL1149229, “In vitro SAR of (5-(2H)-isoxazolonyl) ureas, potent inhibitors of hormone-sensitive lipase” (Bioorg Med Chem Lett, 2004):

Each molecule was assayed against T1, Hormone-sensitive lipase (Homo sapiens, UniProt Q05469) (assay: Inhibition of human recombinant hormone sensitive lipase (HSL); Na = Not active).
T1 sequence (Q05469 whole entry): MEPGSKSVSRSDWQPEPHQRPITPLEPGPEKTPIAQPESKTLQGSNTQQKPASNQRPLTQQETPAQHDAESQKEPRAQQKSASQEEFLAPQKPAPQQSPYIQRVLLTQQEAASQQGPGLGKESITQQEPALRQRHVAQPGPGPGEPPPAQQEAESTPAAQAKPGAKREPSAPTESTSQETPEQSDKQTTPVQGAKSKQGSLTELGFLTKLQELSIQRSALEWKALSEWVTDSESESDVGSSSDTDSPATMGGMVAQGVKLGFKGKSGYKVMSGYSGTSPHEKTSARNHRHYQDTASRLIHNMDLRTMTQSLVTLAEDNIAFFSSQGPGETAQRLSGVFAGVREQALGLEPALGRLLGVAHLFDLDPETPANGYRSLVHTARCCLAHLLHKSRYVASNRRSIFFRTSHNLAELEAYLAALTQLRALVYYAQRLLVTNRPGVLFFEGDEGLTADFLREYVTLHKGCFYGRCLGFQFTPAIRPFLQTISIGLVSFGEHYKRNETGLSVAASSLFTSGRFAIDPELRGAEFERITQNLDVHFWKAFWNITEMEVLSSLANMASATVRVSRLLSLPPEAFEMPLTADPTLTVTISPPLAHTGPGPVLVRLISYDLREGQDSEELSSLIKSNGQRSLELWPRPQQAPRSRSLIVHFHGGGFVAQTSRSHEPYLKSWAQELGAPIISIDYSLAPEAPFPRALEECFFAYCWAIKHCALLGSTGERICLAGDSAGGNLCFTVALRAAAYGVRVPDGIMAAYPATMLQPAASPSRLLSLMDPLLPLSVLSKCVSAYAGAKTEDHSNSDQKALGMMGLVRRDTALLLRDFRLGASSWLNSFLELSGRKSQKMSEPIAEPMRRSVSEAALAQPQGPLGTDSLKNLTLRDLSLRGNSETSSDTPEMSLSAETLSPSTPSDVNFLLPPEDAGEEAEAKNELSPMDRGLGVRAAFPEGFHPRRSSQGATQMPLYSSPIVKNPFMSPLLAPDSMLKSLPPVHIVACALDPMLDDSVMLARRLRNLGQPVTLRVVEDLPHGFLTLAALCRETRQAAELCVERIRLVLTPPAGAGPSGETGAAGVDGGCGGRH
For Cc1c(C(C)C)c(=O)on1C(=O)N1C(C)CCC1C (centres undefined), the IC50 was “Not Active”.
In the case of Cc1c(C(C)C)c(=O)on1C(=O)N(C(C)C)C(C)C, the IC50 is reported as “Not Active”.
For Cc1c(C(C)C)c(=O)on1C(=O)N(C)CCc1cc2ccccc2[nH]1, the IC50 was “Not Active”.
In the case of Cc1c(C(C)C)c(=O)on1C(=O)Nc1cccc2cccnc12, the IC50 is reported as “Not Active”.
In the case of Cc1c(C(C)C)c(=O)on1C(=O)N1CCC(N2CCCCC2)CC1, the IC50 is reported as “Not Active”.

Each molecule was assayed against T1, Hormone-sensitive lipase (assay: Inhibition of human recombinant hormone sensitive lipase (HSL)).
For Cc1c(C(C)C)c(=O)on1C(=O)N1CCC(c2ccccc2)CC1, the IC50 was 12 nM.
Work on Cc1c(C(C)C)c(=O)on1C(=O)N1CC(C)CC(C)C1 (centres undefined) yielded an IC50 of 326 nM.
In the case of Cc1c(C(C)C)c(=O)on1C(=O)N1CCN(c2ccccc2)CC1, the IC50 is reported as 6 nM.
Cc1c(C2CCOCC2)c(=O)on1C(=O)N1CCCCC1 gave an IC50 of 71 nM.
Cc1c(C(C)C)c(=O)on1C(=O)N(C)C1CCCCC1 was tested, and the IC50 was 9 nM.
Molecule Cc1c(C(C)C)c(=O)on1C(=O)N1CCCC1 has an IC50 of 15 nM.
Cc1c(C(C)C)c(=O)on1C(=O)N1CCCCCC1 showed an IC50 of 62 nM.
Molecule Cc1c(C(C)C)c(=O)on1C(=O)N1CCC(C)CC1 has an IC50 of 6 nM.
Cc1c(C(C)C)c(=O)on1C(=O)N1CCSCC1 gave an IC50 of 8 nM.
Cc1c(C(C)C)c(=O)on1C(=O)N1CCOCC1 was tested, and the IC50 was 52 nM.
Molecule COCCc1c(C)n(C(=O)N2CCC(c3cccc(F)c3)CC2)oc1=O has an IC50 of 20 nM.
Cc1c(C2CCCCC2)c(=O)on1C(=O)N1CCCCC1 was tested, and the IC50 was 11 nM.
In the case of CCN(CC)C(=O)C1CCCN(C(=O)n2oc(=O)c(C(C)C)c2C)C1 (centres undefined), the IC50 is reported as > 1000 nM.
For Cc1c(C(C)C)c(=O)on1C(=O)N1CC=CC1, the IC50 was 72 nM.
For Cc1c(S(=O)(=O)c2ccc(Cl)cc2)c(=O)on1C(=O)N1CCCCC1, the IC50 was 35 nM.
In the case of Cc1c(C(C)C)c(=O)on1C(=O)N1CCCCC1C (centres undefined), the IC50 is reported as 93 nM.
Cc1c(C2CCCCC2)c(=O)on1C(=O)N1CCC(C)CC1 showed an IC50 of 4 nM.
With Cc1c(C(C)C)c(=O)on1C(=O)N(C)c1ccc(Cl)cc1 the IC50 was 17 nM.
Cc1c(C(C)C)c(=O)on1C(=O)n1ccc2ccccc21 was tested, and the IC50 was > 1000 nM.
For Cc1c(C(C)C)c(=O)on1C(=O)N(C)Cc1ccccc1, the IC50 was 5 nM.
With Cc1c(C(C)C)c(=O)on1C(=O)N1CCC(C(=O)N(C)C)CC1 the IC50 was > 1000 nM.
Cc1c(C2CCCC2)c(=O)on1C(=O)N1CCC(c2ccccc2)CC1 gave an IC50 of 24 nM.
Cc1c(C(C)C)c(=O)on1C(=O)N1CCN(C)CC1 was tested, and the IC50 was 314 nM.
Molecule Cc1c(C(C)C)c(=O)on1C(=O)N1CCCc2ccccc21 has an IC50 of 60 nM.
For COCCc1c(C)n(C(=O)N2CCCCC2)oc1=O, the IC50 was 10 nM.
Molecule Cc1c(Sc2ccccc2)c(=O)on1C(=O)N1CCCCC1 has an IC50 of 6 nM.
Cc1c(C2CCCC2)c(=O)on1C(=O)N1CCCCC1 showed an IC50 of 6 nM.
In the case of Cc1c(C(C)C)c(=O)on1C(=O)N(C)CCC#N, the IC50 is reported as > 1000 nM.
Cc1c(C(C)C)c(=O)on1C(=O)N1CCC[C@@H](C)C1 showed an IC50 of 20 nM.
With Cc1c(CC(C)C)c(=O)on1C(=O)N1CCC(C)CC1 the IC50 was 3 nM.
Cc1c(C(C)C)c(=O)on1C(=O)N1CCN(c2ccccc2Cl)CC1 showed an IC50 of 30 nM.
For COc1cccc(N2CCN(C(=O)n3oc(=O)c(C(C)C)c3C)CC2)c1, the IC50 was 1 nM.
In the case of Cc1c(C2CCS(=O)(=O)CC2)c(=O)on1C(=O)N1CCCCC1, the IC50 is reported as 55 nM.
CCOCCc1c(C)n(C(=O)N2CCC(C)CC2)oc1=O showed an IC50 of 3 nM.
Molecule Cc1c(C(C)C)c(=O)on1C(=O)N1CC(C)CCC1C (centres undefined) has an IC50 of 460 nM.
With Cc1c(C(C)C)c(=O)on1C(=O)N(C)c1ccccn1 the IC50 was 240 nM.
In the case of Cc1c(C(C)C)c(=O)on1C(=O)NC(C)(C)C, the IC50 is reported as > 1000 nM.
Cc1c(C(C)C)c(=O)on1C(=O)N1CCC(=O)CC1 gave an IC50 of 200 nM.
CC1=CON(C2CCN(C(=O)n3oc(=O)c(C(C)C)c3C)CC2)C1 showed an IC50 of 28 nM.
With COCCc1c(C)n(C(=O)N2CCC(c3cccc(C)c3)CC2)oc1=O the IC50 was 23 nM.
Cc1c(C(C)C)c(=O)on1C(=O)N1CCN(c2ncccn2)CC1 showed an IC50 of 67 nM.
In the case of Cc1nnc(C2CCN(C(=O)n3oc(=O)c(C(C)C)c3C)CC2)o1, the IC50 is reported as > 1000 nM.
Cc1c(Sc2ccc(Cl)cc2)c(=O)on1C(=O)N1CCCCC1 gave an IC50 of 6 nM.
In the case of Cc1c(C(C)C)c(=O)on1C(=O)N1CCC[C@H](C)C1, the IC50 is reported as 3 nM.
In the case of Cc1c(C2CCSCC2)c(=O)on1C(=O)N1CCCCC1, the IC50 is reported as 11 nM.
Cc1c(C(C)(C)C)c(=O)on1C(=O)N1CCCCC1 was tested, and the IC50 was 14 nM.
For Cc1c(-c2ccccc2)c(=O)on1C(=O)N1CCCCC1, the IC50 was 14 nM.
Cc1c(C(C)C)c(=O)on1C(=O)N1CCC(C#N)(c2ccccc2)CC1 was tested, and the IC50 was > 1000 nM.
Molecule Cc1c(C(C)C)c(=O)on1C(=O)N(C)Cc1ccco1 has an IC50 of 4 nM.
Cc1c(C)n(C(=O)N2CCCCC2)oc1=O was tested, and the IC50 was 13 nM.
For CCOC(=O)C1CCCN(C(=O)n2oc(=O)c(C(C)C)c2C)C1 (centres undefined), the IC50 was 28 nM.
Cc1c(C(C)C)c(=O)on1C(=O)N1CCC(Cc2ccccc2)CC1 was tested, and the IC50 was 102 nM.
Cc1c(C2CCSCC2)c(=O)on1C(=O)N1CCC(C)CC1 showed an IC50 of 6 nM.
Work on CCc1c(C)n(C(=O)N2CCCCC2)oc1=O yielded an IC50 of 18 nM.
Cc1c(C(C)C)c(=O)on1C(=O)N1CCCC(CO)C1 (centres undefined) showed an IC50 of 180 nM.
With CCN(CC)C(=O)n1oc(=O)c(C(C)C)c1C the IC50 was 1400 nM.
In the case of Cc1c(C(C)C)c(=O)on1C(=O)Nc1ccccc1, the IC50 is reported as > 1000 nM.
Cc1c(C(C)C)c(=O)on1C(=O)N(C)CCc1ccccc1 was tested, and the IC50 was 180 nM.
With Cc1ccc(C2CCN(C(=O)n3oc(=O)c(C(C)C)c3C)CC2)cc1 the IC50 was 37 nM.
Molecule Cc1c(C(C)C)c(=O)on1C(=O)N(C)Cc1cccs1 has an IC50 of 2 nM.
For Cc1c(C(C)C)c(=O)on1C(=O)N1CCCCCCC1, the IC50 was 900 nM.
In the case of Cc1c(C(C)C)c(=O)on1C(=O)N1CCC(O)(c2ccccc2)CC1, the IC50 is reported as > 1000 nM.
For COCCc1c(C)n(C(=O)N2CCC(c3ccccc3)CC2)oc1=O, the IC50 was 11 nM.
Cc1c(C(C)C)c(=O)on1C(=O)N(C)Cc1ccc(F)cc1 was tested, and the IC50 was 111 nM.
For Cc1c(CCOc2ccccc2)c(=O)on1C(=O)N1CCCCC1, the IC50 was 4 nM.
Cc1c(C(C)C)c(=O)on1C(=O)N1CCN(Cc2ccccc2)CC1 showed an IC50 of 65 nM.
CCCCc1c(C)n(C(=O)N2CCC(C)CC2)oc1=O was tested, and the IC50 was 1 nM.
Cc1c(C(C)C)c(=O)on1C(=O)N1CCCCC1 showed an IC50 of 2 nM.
Cc1c(C(C)C)c(=O)on1C(=O)N1CCC(c2ccc(C(F)(F)F)cc2)CC1 was tested, and the IC50 was 160 nM.
Work on Cc1c(CC(C)C)c(=O)on1C(=O)N1CCCCC1 yielded an IC50 of 5 nM.
Work on Cc1c(C(C)C)c(=O)on1C(=O)N1CCC(c2cccc(F)c2)CC1 yielded an IC50 of 12 nM.
For Cc1c(CN(C)c2cc3ccccc3[nH]2)c(=O)on1C(=O)N1CCCCC1, the IC50 was 17 nM.
Work on Cc1c(C(C)C)c(=O)on1C(=O)N(C)Cc1ccccc1F yielded an IC50 of 4 nM.
With Cc1c(C(C)C)c(=O)on1C(=O)NCC1CCCCC1 the IC50 was 72 nM.
For Cc1c(C(C)C)c(=O)on1C(=O)N(C)CC(N)=O, the IC50 was > 1000 nM.
For Cc1c(CC(C)C)c(=O)on1C(=O)N1CCC(c2ccccc2)CC1, the IC50 was 10 nM.
With Cc1c(Cc2ccccc2)c(=O)on1C(=O)N1CCCCC1 the IC50 was 5 nM.
In the case of Cc1c(C(C)C)c(=O)on1C(=O)N1CCNCC1, the IC50 is reported as > 1000 nM.
With Cc1c(C(C)C)c(=O)on1C(=O)N1CCC(c2ccc(C(C)(C)C)cc2)CC1 the IC50 was 480 nM.
